PMC4696607 (ACS infectious diseases, 2015)

How the values were obtained:
[1] = cited from earlier work
[2] = tested on: anthrax lethal factor (LF); settings: cited from earlier work
WEEV = assay type: cell-based
WNV MTase [3] = target: T1, WNV MTase (West Nile virus, UniProt Q9Q6P4); test: N7 methylation inhibition assay, WNV MTase; settings: for IC50: WNV MTase
DENV-2 = test: microbe, parasite or virus in culture; assay type: cell-based, Dengue virus (DENV-2); settings: Dengue virus, DENV2, A549, 42 h
JEV = test: microbe, parasite or virus in culture; assay type: cell-based, Japanese encephalitis virus (JEV); settings: Japanese encephalitis virus, A549, 42 h
VSV = assay type: cell-based
WNV MTase [4] = target: T1, WNV MTase; test: 2′-O methylation inhibition assay, WNV MTase
BHK-21 cells = test: MTT cell proliferation cytotoxicity assay, BHK-21; assay type: cell-based; settings: for CC50 relative to IC50 (fold higher): BHK-21 CC50 vs in vitro IC50; for CC50: BHK-21 cells, MTT, 42 h
[5] = tested on: herpes simplex virus (HSV)-1; settings: cited from earlier work
SLEV = test: organism not typed; assay type: cell-based, St. Louis encephalitis viruses (SLEV); settings: A549, 42 h
WNV = test: microbe, parasite or virus in culture; assay type: cell-based, West Nile virus (WNV); settings: West Nile virus, 42 h
DENV3MTase = DENV3MTase (Dengue virus type 3, UniProt Q6YMS4); test: Competitive SAM binding assay
DENV3MTase, sequence (Q6YMS4 2492-2753): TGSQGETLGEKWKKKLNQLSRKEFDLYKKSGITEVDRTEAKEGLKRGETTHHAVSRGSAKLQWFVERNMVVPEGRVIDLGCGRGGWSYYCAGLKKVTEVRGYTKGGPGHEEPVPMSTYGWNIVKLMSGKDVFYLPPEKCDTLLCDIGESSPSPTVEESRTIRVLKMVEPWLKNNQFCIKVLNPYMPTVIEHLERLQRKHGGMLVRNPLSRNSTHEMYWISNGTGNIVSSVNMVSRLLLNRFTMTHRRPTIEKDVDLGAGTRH

[6] = IC50 N7, with CHAPS, with CHAPS
[7] = read-out: IC50 N7, no CHAPS, no CHAPS
[8] = read-out: IC50 2′-O, with CHAPS, WNV MTase, with CHAPS

T1 sequence (Q9Q6P4 2529-2794): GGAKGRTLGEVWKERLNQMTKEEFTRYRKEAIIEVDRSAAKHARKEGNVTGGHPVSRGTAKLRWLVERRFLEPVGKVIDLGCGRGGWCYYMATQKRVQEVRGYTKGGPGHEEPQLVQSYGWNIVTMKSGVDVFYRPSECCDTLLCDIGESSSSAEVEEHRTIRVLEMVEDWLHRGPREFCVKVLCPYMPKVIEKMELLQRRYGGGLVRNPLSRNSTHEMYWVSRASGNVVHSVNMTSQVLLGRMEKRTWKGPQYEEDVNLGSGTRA

| SMILES | IC50 (WNV MTase [3]; IC50 N7, no CHAPS, no CHAPS) [µM] | IC50 (WNV MTase [3]; [6]) [µM] | IC50 (WNV MTase [4]) [µM] | IC50 (WNV MTase [3]; [7]) [µM] | IC50 (WNV MTase [4]; [8]) [µM] | CC50 (BHK-21 cells) [µM] | also measured |
| --- | --- | --- | --- | --- | --- | --- | --- |
| Cc1cc(N)c2cc(NC(=O)Nc3ccc4nc(C)cc(N)c4c3)ccc2n1 [NSC 12155, aminoquinuride] | 1.4 | 0.87 | 3 |  |  |  | binding to glycosaminoglycans [1]: bind to glycosaminoglycans; anthrax lethal factor (LF) activity [2]: inhibited; inhibition of virus growth (WEEV): did not inhibit; EC50 (DENV-2): 7 µM; EC50 (JEV): 3.1 µM; inhibition of virus growth (VSV): did not inhibit; CC50 relative to IC50 (fold higher) (BHK-21 cells): 20 fold; cell adhesion by HSV-1 [5]: prevent cell adhesion; EC50 (SLEV): 5.1 µM; EC50 (WNV): 1 µM; IC50 (DENV3MTase): 1.2 µM |
| S=C(Nc1ccc2c(c1)Cc1ccccc1-2)Nc1ccc2c(c1)Cc1ccccc1-2 [NSC 23217] | 15.7 | > 300 | 7.4 |  |  |  |  |
| Nc1ccc(-c2ccc(Nc3cc(S(=O)(=O)O)c(N)c4c3C(=O)c3ccccc3C4=O)cc2)c(S(=O)(=O)O)c1 [NSC 125910] | 7.6 | 17.6 | 3.2 |  |  |  | CC50 relative to IC50 (fold higher) (BHK-21 cells): 20 fold; EC50 (WNV): 2.6 µM |
| CC1OC(CC(=O)O)Cc2c1c(O)c1c(O)cc(-c3cc(=O)c4c(=O)c5c(c(=O)c=4c3=O)CC(CC(=O)O)OC5C)c(O)c1c2O (stereo not shown) [NSC 293161] |  |  |  | 13.2 | 54.6 | 25 | IC50 (WNV MTase [3]; read-out: IC50 N7, with CHAPS, with CHAPS): 31 µM |
| Nc1nc(-c2cccc([N+](=O)[O-])c2)cc(-c2cc(-c3cccc([N+](=O)[O-])c3)nc(N)n2)n1 [NSC 371880] |  |  |  | 63 | 72 | 212 |  |
| O=C1C2=C(Nc3cc([N+](=O)[O-])ccc3N2)OC1c1ccc(C2OC3=C(Nc4ccc([N+](=O)[O-])cc4N3)C2=O)cc1 (stereo not shown) [NSC 372295] |  |  |  | 62 | 57 | 126 |  |
| Nc1ncnc2c1ncn2[C@@H]1O[C@H](C[C@@H](N)CC[C@H](N)C(=O)O)[C@@H](O)[C@H]1O [SIN, sinefungin, reference compound] |  |  |  |  |  |  | effect of CHAPS on inhibition activity (WNV MTase [3]; N7 inhibition with detergent CHAPS): not affected at all; inhibition at 150 µM (WNV MTase [3]; read-out: inhibition of N7 activity of the WNV MTase): ~80% |
